Measured values as given in patent US20240197871A1, “COMBINATION OF A CAR T CELL THERAPY AND AN IMMUNOMODULATORY COMPOUND FOR TREATMENT OF LYMPHOMA” (Juno Therapeutics, Inc., priority 2021, published 2024).

Experiments:
[1] = system: chronically stimulated anti-CD19 CAR T cells; assay: RNA-seq gene expression of chronically stimulated CAR T cells; assay type: cell-based, human
Description: Five days after re-challenge, CAR T cells were sorted from tumor spheroids, and gene expression was analyzed by RNA sequencing (RNA-seq). Libraries for RNA-seq were sequenced, and reads were mapped to the Genome Reference Consortium Human Build 38 (GRCh38) human reference genome. Gene expression levels were quantified, and differential expression was performed using DESeq2. Gene expression was compared between chronically stimulated CAR T cells treated with Compound C during stimulation and untreated chronically stimulated CAR T cells, as well as between untreated chronically stimulated CAR T cells and non-stimulated CAR T cells. Differential expression was calculated based on treatment effects with 1 nM and 10 nM of the compounds. Differential locus selection cut offs were q≤0.05 and absolute log2 fold change ≥0.5.
Pathway analysis of CAR T RNA-seq data using the Kyoto Encyclopedia of Genes and Genomes (KEGG) was also performed using clusterProfiler. Pathways whose upregulation by chronic stimulation was prevented or reduced by treatment with Compound C are shown in FIG. 3J and include specific cell proliferation pathways. Gene ratios as shown in FIG. 3J were calculated as the percentage of significant genes over total genes in a given pathway.
Gene expression of chronically stimulated CAR T cells was also analyzed by RNA sequencing as in Example 3. […]

Ikaros = target: T1, Ikaros (Homo sapiens, UniProt Q13422+Q96SW2); assay: Ikaros levels in anti-CD19 CAR T cells after 24-hour or six-day exposure; assay type: cell-based
T1 construct: analyzed by flow cytometry to assess intracellular levels of Ikaros and Aiolos in CAR+ T cells; endogenous in cells; host or cells: primary human CD4+ and CD8+ T cells from healthy donors, lentivirally transduced with an anti-CD19 CAR
Description: Due to the robust impact of Compound C on degradation of Ikaros and Aiolos, in which excessive or sustained treatment may impact CAR T cell function negatively and/or cause neutropenia secondary to neutrophil maturation arrest, an intermittent dosing schedule for treatment with Compound C was evaluated for its ability to effect deep, but transient degradation of Ikaros. To do so, the pharmacokinetics of a weekly (Q7D) 0.3-mg dose of Compound C were modelled. […] The effects of a weekly 0.3-mg dose of Compound C on neutrophil development were also modelled.
FIGS. 6B and 6C show Ikaros levels in anti-CD19 CAR T cells, generated as described in Example 1, following 24-hour (FIG. 6B) or six-day exposure (FIG. 6C) to Compound C.

[2] = system: Raji lymphoma tumor spheroids; assay: Simulated intermittent dosing during chronic stimulation, re-challenge with tumor spheroids; assay type: cell-based; conditions: for cytolytic activity of chronically stimulated CAR T cells over four-day re-challenge: P<0.0001
Description: The effects of an intermittent Compound C dosing schedule on CAR T cells was assessed.
Anti-CD19 CAR-expressing T cells, produced as described in Example 1, were chronically stimulated as described in Example 3 in the presence of Compound C. During chronic stimulation, Compound C was present at (i) 50 nM for one day and 1 nM for the remaining five days, (ii) 25 nM for one day and 0.5 nM for the remaining five days, (iii) 10 nM for one day and absent for the remaining five days, or (iv) 1 nM for all six days. Stimulated CAR T cells were then re-challenged with Raji lymphoma tumor spheroids in the absence of Compound C, after which cytolytic activity was assessed.
Similar results are shown in FIG. 7B for a separate experiment in which CAR T cells were chronically stimulated for 7 days in the presence or absence of Compound C. In this experiment, Compound C was present at (i) 50 nM for one day and 1 nM for the remaining six days of stimulation, (ii) 25 nM for one day and 0.5 nM for the remaining six days of stimulation, (iii) 10 nM for all seven days of stimulation, or (iv) 1 nM for all seven days of stimulation. Stimulated CAR T cells were then re-challenged with Raji lymphoma tumor spheroids in the absence of Compound C, after which cytolytic activity was assessed over a four-day period. […] The CAR T cells stimulated for seven days in the presence or absence of Compound C were also analyzed for phenotypic T cell memory markers using flow cytometry following chronic stimulation. […] CD27/CCR7 expression, which is a marker for less differentiated, naïve-like T cells, was highest in CAR-expressing CD8 T cells stimulated in the presence of Compound C at 50 nM for one day and 1 nM for the remaining six days of stimulation (* P<0.05).

T1 sequence (Q13422 whole entry): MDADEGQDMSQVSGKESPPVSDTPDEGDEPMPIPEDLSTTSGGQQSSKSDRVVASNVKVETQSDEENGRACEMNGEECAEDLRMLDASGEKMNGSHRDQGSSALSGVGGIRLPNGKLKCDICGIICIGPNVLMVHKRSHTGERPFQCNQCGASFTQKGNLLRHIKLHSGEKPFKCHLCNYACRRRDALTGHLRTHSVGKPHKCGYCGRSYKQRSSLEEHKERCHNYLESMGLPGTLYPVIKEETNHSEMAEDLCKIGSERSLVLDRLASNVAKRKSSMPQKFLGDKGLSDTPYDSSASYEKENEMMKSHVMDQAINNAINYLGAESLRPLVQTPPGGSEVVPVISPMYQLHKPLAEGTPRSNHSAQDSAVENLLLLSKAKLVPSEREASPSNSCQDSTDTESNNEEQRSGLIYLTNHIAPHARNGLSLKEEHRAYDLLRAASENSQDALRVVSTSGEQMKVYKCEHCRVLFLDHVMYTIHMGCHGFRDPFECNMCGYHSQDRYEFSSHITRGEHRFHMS
T1 sequence (Q96SW2 whole entry): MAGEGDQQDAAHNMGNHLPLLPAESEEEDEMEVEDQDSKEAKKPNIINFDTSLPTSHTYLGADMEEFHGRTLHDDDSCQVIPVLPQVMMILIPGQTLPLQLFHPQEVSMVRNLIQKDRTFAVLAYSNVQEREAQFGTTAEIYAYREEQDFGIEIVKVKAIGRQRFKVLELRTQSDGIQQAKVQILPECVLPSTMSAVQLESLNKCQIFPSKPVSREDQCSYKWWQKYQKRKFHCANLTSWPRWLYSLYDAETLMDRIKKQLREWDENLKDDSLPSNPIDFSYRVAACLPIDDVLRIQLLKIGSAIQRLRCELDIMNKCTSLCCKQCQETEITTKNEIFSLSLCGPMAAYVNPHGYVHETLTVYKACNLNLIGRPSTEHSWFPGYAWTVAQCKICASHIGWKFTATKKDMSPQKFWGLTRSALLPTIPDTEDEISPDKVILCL
T1 sequence (Q16531 whole entry partner): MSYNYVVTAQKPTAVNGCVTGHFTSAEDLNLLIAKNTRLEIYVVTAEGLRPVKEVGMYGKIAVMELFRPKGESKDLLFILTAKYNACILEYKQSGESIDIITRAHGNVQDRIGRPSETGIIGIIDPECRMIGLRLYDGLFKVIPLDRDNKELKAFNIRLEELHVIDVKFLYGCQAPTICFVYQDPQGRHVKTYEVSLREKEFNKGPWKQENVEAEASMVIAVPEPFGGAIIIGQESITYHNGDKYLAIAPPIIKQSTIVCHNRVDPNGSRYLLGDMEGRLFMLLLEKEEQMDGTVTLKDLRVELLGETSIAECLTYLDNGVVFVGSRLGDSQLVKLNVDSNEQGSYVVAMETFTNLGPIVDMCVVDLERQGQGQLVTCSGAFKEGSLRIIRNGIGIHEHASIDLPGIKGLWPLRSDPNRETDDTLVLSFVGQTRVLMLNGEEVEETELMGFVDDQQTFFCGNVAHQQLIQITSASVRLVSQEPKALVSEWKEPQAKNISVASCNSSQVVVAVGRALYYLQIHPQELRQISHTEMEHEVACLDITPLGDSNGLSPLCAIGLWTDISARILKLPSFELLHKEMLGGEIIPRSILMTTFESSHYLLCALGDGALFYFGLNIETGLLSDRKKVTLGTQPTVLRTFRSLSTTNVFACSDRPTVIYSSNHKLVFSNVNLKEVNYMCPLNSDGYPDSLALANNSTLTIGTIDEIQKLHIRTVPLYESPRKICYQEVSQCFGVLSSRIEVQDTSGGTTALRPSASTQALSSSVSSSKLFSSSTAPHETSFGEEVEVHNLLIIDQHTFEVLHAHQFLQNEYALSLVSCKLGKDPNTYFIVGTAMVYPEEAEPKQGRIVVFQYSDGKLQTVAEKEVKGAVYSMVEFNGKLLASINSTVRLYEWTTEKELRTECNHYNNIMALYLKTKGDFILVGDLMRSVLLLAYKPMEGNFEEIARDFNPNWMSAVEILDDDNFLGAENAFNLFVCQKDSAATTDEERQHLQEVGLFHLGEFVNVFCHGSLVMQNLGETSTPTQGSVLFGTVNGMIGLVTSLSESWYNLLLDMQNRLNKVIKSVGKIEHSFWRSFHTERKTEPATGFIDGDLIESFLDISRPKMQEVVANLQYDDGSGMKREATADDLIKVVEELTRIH

**Q.** What does the source list for `O=C1CC[C@H](N2C(=O)c3cccc(NCc4ccc(CN5CC(N6CCOCC6)C5)cc4F)c3C2=O)C(=O)N1` [Compound C, (S)-2-(2,6-dioxopiperidin-3-yl)-4-((2-fluoro-4-((3-morpholinoazetidin-1-yl)methyl)benzyl)amino)isoindoline-1,3-dione]?
**A.** gene expression vs untreated chronically stimulated CAR T cells (RNA-seq) ([1]; treatment during chronic stimulation (concurrent), 1 nM and 10 nM): altered gene expression; gene expression vs untreated chronically stimulated CAR T cells (RNA-seq) ([1]; treatment during re-challenge (rescue)): altered gene expression; Ikaros levels in anti-CD19 CAR T cells (Ikaros; 24-hour exposure, dose levels as low as 0.01 μM): lead to Ikaros degradation; Ikaros levels in anti-CD19 CAR T cells (Ikaros; six-day exposure to 0.001 μM): did not affect Ikaros levels; cytolytic activity of chronically stimulated CAR T cells (tumor cell number during re-challenge) ([2]; 25 nM for one day and 0.5 nM for the remaining five days of stimulation): most increase in cytolytic activity; cytolytic activity of chronically stimulated CAR T cells over four-day re-challenge ([2]; 25 nM for one day and 0.5 nM for the remaining six days of stimulation): improved cytolytic activity; cytolytic activity of chronically stimulated CAR T cells (tumor cell number during re-challenge) ([2]; 50 nM for one day and 1 nM for the remaining five days of stimulation): most increase in cytolytic activity; cytolytic activity of chronically stimulated CAR T cells over four-day re-challenge ([2]; 50 nM for one day and 1 nM for the remaining six days of stimulation): improved cytolytic activity
